Structures are written as SMILES. Structures can show the parent of a compound that is named as a salt.

One assay has as its system vas deferens of the rat. Put plainly: Potentiation of the activity of noradrenaline on the vas deferens in vitro. The format is cell-based. To be noted: for EC (2-fold shift): Rattus norvegicus, negative logarithm of the molar concentration giving a shift to the left of a factor 2 of the noradrenaline curve, read-out: pP2-value (converted); for noradrenaline potentiation: rat vas deferens in vitro. From the text:
The test used is a modification of the method as described by Ursillo and Jacobsen, J. Pharmacol. Ex. Ther. 148, (1965), 247.
The smallest dose which gave a potentiating effect was […], and the potentiating activity was maximum in a quantity of 5 x 10 7M. Higher dosages caused a non--specific decrease of the maximum of the noradrenaline curve.
For quantifying the effect at the 50% point of the contraction curve (maximum of the control noradrenaline curve = 100%), the shift of the curve obtained with the compound to be tested (expressed as DR) was measured. The pP2-values were calculated in the same manner as the pA2-values mentioned sub b), according to the equation
^pP2 ^= -log [secoverine] + log (DR-1).

The subject of the next assay is cornea of male mice. Briefly: Local anaesthetic activity on the cornea. The format is in vivo. To be noted: concentration of solution giving local anaesthesia in 50% of the animals, 10 per dose, determined graphically. The procedure: The anaesthetic activity on the cornea of male mice (18-22 g), 10 animals per dose, was determined according to the method by Weidmann and Petersen, J. Pharmacol. Exp. Ther., 115 (1955), 246. The concentration of the solution of the compounds which gave local anaesthesia in 50% of the animals was determined graphically (EC50--value): […]

The test system of a further assay is guinea pigs. Put plainly: Anticholinergic activity in vivo, carbachol as spasmogen. The settings on record: i.v. The procedure:
These tests were carried out according to the method by J.M.A. Zwagemakers, Arzneimittelforschung, 30 (II), (1980), 1517-1526 in which carbachol was used as a spasmogenically active substance. After a constant response to the spasmogen had been obtained, the compound to be tested was administered intravenously (i.v.) to guinea pigs 3 minutes prior to the next quantity of spasmogenically active substance. The activity of the compounds was determined for 52 minutes. Contractions obtained after preceding administration of the substance to be tested were expressed as percentages of the average of two control values and were plotted graphically. The average percentage of inhibition during the period of 52 minutes was calculated from the area under the curve, and the maximum inhibition and the duration of the spasmolytic activity were estimated by means of the time-contraction curve. The spasmolytic activity is considered to be terminated when two successive contractions show less than 20% inhibition.

The test system of the next assay is rat jejunum. Briefly: Peripheral spasmolytic activity in vitro, furtrethonium as spasmogen. The format is cell-based. The procedure:
(§1) The required organs were isolated from killed guinea pigs and the contents and adherent tissues were carefully removed from suitable pieces. The said organs were then suspended in a bath containing 50 ml of Tyrode solution through which oxygen was led. The spasmogenically active substance (carbachol) was added to the bath inter- mittem tly and, after a constant response to the spasmogen had been obtained, the spasmolytic activity of the substances to be tested was measured by adding them to the bath 30 seconds prior to the spasmogen.
Similar results were obtained by using rat jejunum as an organ and using furtrethonium as a spasmogenically active substance: the (+)-enantiomer of secoverine now was 2.10 times as active as the racemate.

Another assay has as its system guinea pig ileum. Briefly: Peripheral spasmolytic activity in vitro, 4-point analysis, carbachol as spasmogen. In kind it is cell-based. The protocol: These tests were carried out according to the normal 4--point analysis in which the termina-1 guinea pig ileum was used as isolated organ and carbachol was used as a cholinergic spasmogen.
as §1
The relative activity of the (+)-enantiomer of secoverine as compared with the racemate was calculated fron, a series of 4-point assays: the (+)-enantiomer of secoverine was 1.86 times as active as the racemate.

On to `CCN(CCCC(=O)C1CCCCC1)C(C)Cc1ccc(OC)cc1` (racemic) [racemate], for which, in the assay on vas deferens of the rat, the EC (2-fold shift) was 0.309 µM and the noradrenaline potentiation result was “significant noradrenaline potentiation”. Besides, the “EC50-value (% w/vol)” value in the assay with cornea of male mice was determined as 0.13 % w/vol.
For `CCN(CCCC(=O)C1CCCCC1)[C@@H](C)Cc1ccc(OC)cc1` [(+)-enantiomer of secoverine, (+)S-1-cyclohexyl-4-[ethyl(p-methoxy-α-methylphenethyl)--amino]-l-butanone hydrochloride], the “activity in vivo relative to the racemate” value in the assay with guinea pigs is given as “about twice as active”. Also, the “relative activity as compared with the racemate” value in the assay with rat jejunum is reported as 2.10 times; with guinea pig ileum (guinea pig ileum, carbachol, series of 4-point assays), 1.86 times. Also, in the assay on guinea pig ileum (summary statement), the “anticholinergic spasmolytic activity in peripheral organs relative to the racemate” value was “approximately twice as strong”. Also, the EC (2-fold shift) with vas deferens of the rat is 0.263 µM. For the same compound, in the assay on vas deferens of the rat, the noradrenaline potentiation result is given as “significant noradrenaline potentiation”. Further, the “EC50-value (% w/vol)” value with cornea of male mice is 0.20 % w/vol.
In the case of `CCN(CCCC(=O)C1CCCCC1)[C@H](C)Cc1ccc(OC)cc1` [(-)-enantiomer of secoverine], in the assay with vas deferens of the rat, the EC (2-fold shift) is 0.17 µM and the noradrenaline potentiation entry was “significant noradrenaline potentiation”. Further, in the assay with cornea of male mice, the “EC50-value (% w/vol)” value is on record as 0.08 % w/vol.
